Data reported in patent publication US6410034B1, “Dermal absorption-promoting agent” (Takasago International Corporation, priority 1998, dated 2002).
“Also recorded” adds a separate entry of the source.

Legend:
[1] = isosorbide dinitrate in an aqueous suspension; Fragrance Journal, p34, 1996-4; cited from earlier work
[2] = combined together with indomethacin; YAKUZAIGAKU vol.56 No.3 (1996), DDS Vol. 12 No. 2 (1997); cited from earlier work
mosquito = conditions: known from prior art; cited from earlier work
skin of Yucatan Micropig [3] = experiment: Dermal permeation test of IM, Example 3, water/1,3-butylene glycol samples, MDM, MPD and 1:1 combination; assay type: in vitro ADME; conditions: indomethacin 0.05 g, promoting agent 0.3 g total (combination 0.15 g + 0.15 g), water 6.0 ml / 1,3-BG 4.0 ml
Protocol: (§1) A skin of Yucatan Micropig [5 month-old, male, NIPPON CHARLES RIVER (KK)] stored frozen at −80° C. was thawed at room temperature and, after removing an unwanted fat adhering to the skin, cut into pieces, each in about 2 cm square, which were subjected to a permeation test.
In the permeation test, a diffusion cell of a modified Franz type (valid surface area: 1.1 cm^2, receptor phase: 16 ml) containing a phosphate buffer, pH7.1, was provided on the receptor phase side, which was stirred with a star-head magnet at 600 rpm with keeping at 37° C. On the donor side, 0.5 ml of a sample solution was contained and closed with a glass ball in order to prevent the evaporation of the sample solution. At a predetermined time, an aliquot was sampled and an equal volume of a buffer solution was supplemented. A receptor phase fractionated was subjected to a high pressure liquid chromatography (HPLC) to quantify the drug which had permeated. The permeation test was continued over a period of 30 to 48 hours. […]

skin of Yucatan Micropig [4] = experiment: Dermal permeation test of indomethacin (IM), Example 1, water/ethanol samples, modified Franz diffusion cell; assay type: in vitro ADME; conditions: indomethacin 0.05 g, promoting agent 0.3 g, water 6.0 ml / ethanol 4.0 ml, 37° C., 30 to 48 hours
Source text: (§2) A lipophilic agent indomethacin (IM) and a hydrophilic agent antipyrine (ANP) were used to compare the dermal absorption-promoting effect of p-menthane-3,8-diol (MDM: mixture of trans and cis forms) with those of l-menthol (LM) and 3-l-menthoxypropane-1,2-diol (MPD) together with a control.
(§3) According to the formulations shown in Table 1 (IM) and Table 2 (ANP), each of the three dermal absorption-promoting agents was employed, dissolved in ethanol and combined with water to prepare a sample. The samples thus prepared were stored at 37° C. until use.
as §1
(§4) In the permeation test, a diffusion cell of a modified Franz type (valid surface area: 1.1 cm^2, receptor phase: 16 ml) containing a phosphate buffer, pH7.1, was provided on the receptor phase side, which was stirred with a star-head magnet at 600 rpm with keeping at 37° C. […] A receptor phase fractionated was subjected to a high pressure liquid chromatography (HPLC) to quantify the drug which had permeated. […]
(§5) IM and ANP were determined using an UV spectrophotometer model SPD-6A (SHIMADZU) at wavelengths of 254 nm and 245 nm, respectively. […]

skin of Yucatan Micropig [5] = experiment: Dermal permeation test of IM, Example 2, water/1,3-butylene glycol samples; assay type: in vitro ADME; conditions: indomethacin 0.05 g, promoting agent 0.3 g, water 6.0 ml / 1,3-BG 4.0 ml
Protocol: as §1
In the permeation test, a diffusion cell of a modified Franz type (valid surface area: 1.1 cm^2, receptor phase: 16 ml) containing a phosphate buffer, pH7.1, was provided on the receptor phase side, which was stirred with a star-head magnet at 600 rpm with keeping at 37° C. On the donor side, 0.5 ml of a sample solution was contained and closed with a glass ball in order to prevent the evaporation of the sample solution. At a predetermined time, an aliquot was sampled and an equal volume of a buffer solution was supplemented. A receptor phase fractionated was subjected to a high pressure liquid chromatography (HPLC) to quantify the drug which had permeated. The permeation test was continued over a period of 30 to 48 hours.
A lipophilic agent indomethacin (IM) was used to compare the dermal absorption-promoting effect of p-menthane-3,8-diol (MDM: mixture of trans and cis forms) with those of l-menthol (LM) together with a control.

skin of Yucatan Micropig [6] = experiment: Dermal permeation test of antipyrine (ANP), Example 1, water/ethanol samples, modified Franz diffusion cell; assay type: in vitro ADME; conditions: promoting agent dissolved in ethanol and combined with water, 37° C., 30 to 48 hours
Source text: as §2, §3, §1, §4, §5

## CC12CCC(CC1)C(C)(C)O2 [1,8-cineol]
[1]
  promotion of dermal permeation of isosorbide dinitrate: promoted greatly

## CC(C)[C@@H]1CC[C@@H](C)C[C@H]1O [LM, l-menthol]
[1]
  promotion of dermal permeation of isosorbide dinitrate: promoted greatly
[2]
  promotion of dermal absorption of indomethacin: promotes the dermal absorption of indomethacin

## CC1CCC(C(C)(C)O)C(O)C1 (centres unmarked) [MDM, p-menthane-3,8-diol]
mosquito
  repelling effect on a mosquito: known to have a repelling effect on a mosquito
Skin of Yucatan Micropig [3]
  dermal permeation-promoting ability (cumulative permeation of IM vs time, FIG. 4): higher than that of MPD
Skin of Yucatan Micropig [4]
  dermal permeation-promoting ability (cumulative permeation of IM vs time, FIG. 1): not as high as that of LM but was higher than that of MPD; also recorded: promoted the dermal permeation of IM
Skin of Yucatan Micropig [4]; listed as p-menthane-3,8-diol
  dermal permeation-promoting ability (cumulative permeation of IM vs time, FIG. 1): promoted the dermal permeation of both of lipophilic agent indomethacin and hydrophilic antipyrine
Skin of Yucatan Micropig [5]
  dermal permeation-promoting ability (cumulative permeation of IM vs time, FIG. 3): exhibited a dermal permeation-promoting ability, although the ability was not as high as that of LM; also recorded: promoted the dermal permeation of IM
Skin of Yucatan Micropig [6]
  dermal permeation-promoting ability (cumulative permeation of ANP vs time, FIG. 2): exhibited a dermal permeation-promoting ability, although the ability was not as high as that of LM and MPD; also recorded: promoted the dermal permeation of ANP
Skin of Yucatan Micropig [6]; listed as p-menthane-3,8-diol
  dermal permeation-promoting ability (cumulative permeation of ANP vs time, FIG. 2): promoted the dermal permeation of both of lipophilic agent indomethacin and hydrophilic antipyrine

## CC1CCC(C(C)C)C(OCC(O)CO)C1 (stereo not drawn) [MPD, 3-l-menthoxypropane-1,2-diol]
[2]
  promotion of dermal absorption of indomethacin: somewhat lower than that of l-menthol; also recorded: promotes the dermal absorption of indomethacin
